Assay results reported in ChEMBL document CHEMBL4706659, “Design, synthesis and biological evaluation of novel 2,4-diaryl pyrimidine derivatives as selective EGFR inhibitors” (Eur J Med Chem, 2021).

How the values were obtained:
[1] = Selectivity ratio of IC50 for HLF cells to IC50 for antiproliferative activity against human NCI-H1975 cells
[2] = Oral bioavailability in Sprague-Dawley rat at 10 mg/kg administered as single dose; assay type: ADME, organism-based; details: in vivo
NCI-H1975 [3] = experiment: Induction of mitochondrial membrane potential loss in human NCI-H1975 cells harboring EGFR T790M/L858R mutant assessed as cells with intact mitochondrial membrane potential at 1 nM measured after 24 hrs by JC1 staining based fluorescence microscopic analysis (reference value: 94.51%); assay type: functional
NCI-H1975 [4] = experiment: Induction of apoptosis in human NCI-H1975 cells harboring EGFR T790M/L858R mutant assessed as early apoptotic cells at 5 nM measured after 48 hrs by Annexin-V-FITC/propidium iodide staining based flow cytometry (reference value: 0.82%); assay type: functional
NCI-H292 = experiment: Antiproliferative activity against human NCI-H292 cells harboring wild-type EGFR by MTT assay; assay type: functional, cell-based
[5] = Toxicity in nude mouse xenografted with human NCI-H1975 cells harboring EGFR T790M/L858R mutant assessed as body weight loss at 15 mg/kg, po administered once daily for 7 days relative to control; assay type: organism-based; details: in vivo, 168 h, time 7 day
L02 = experiment: Cytotoxicity against human L02 cells assessed as reduction in cell viability by MTT assay; assay type: cell-based
NCI-H1975 [6] = experiment: Antimigratory activity against human NCI-H1975 cells harboring EGFR T790M/L858R mutant assessed as inhibition of cell migration at 3 nM measured after 48 hrs by phase contrast microscopic analysis relative to control; assay type: functional
[7] = Half life in Sprague-Dawley rat at 10 mg/kg, po administered as single dose; assay type: ADME, organism-based; details: in vivo
NCI-H1975 [8] = experiment: Induction of apoptosis in human NCI-H1975 cells harboring EGFR T790M/L858R mutant assessed as late apoptotic cells at 1 nM measured after 72 hrs by Annexin-V-FITC/propidium iodide staining based flow cytometry (reference value: 0.13%); assay type: functional
NCI-H1975 [9] = experiment: Induction of apoptosis in human NCI-H1975 cells harboring EGFR T790M/L858R mutant assessed as early apoptotic cells at 10 nM measured after 72 hrs by Annexin-V-FITC/propidium iodide staining based flow cytometry (reference value: 0.72%); assay type: functional
NCI-H1975 [10] = experiment: Induction of apoptosis in human NCI-H1975 cells harboring EGFR T790M/L858R mutant assessed as viable cells at 1 nM measured after 72 hrs by Annexin-V-FITC/propidium iodide staining based flow cytometry (reference value: 98.66%); assay type: functional; details: read-out: Activity
NCI-H1975 [11] = experiment: Induction of apoptosis in human NCI-H1975 cells harboring EGFR T790M/L858R mutant assessed as early apoptotic cells at 5 nM measured after 72 hrs by Annexin-V-FITC/propidium iodide staining based flow cytometry (reference value: 0.72%); assay type: functional
[12] = Tmax in Sprague-Dawley rat at 10 mg/kg, po administered as single dose; assay type: ADME, organism-based; details: in vivo
NCI-H1975 [13] = experiment: Induction of apoptosis in human NCI-H1975 cells harboring EGFR T790M/L858R mutant assessed as late apoptotic cells at 10 nM measured after 72 hrs by Annexin-V-FITC/propidium iodide staining based flow cytometry (reference value: 0.13%); assay type: functional
[14] = target: Epidermal growth factor receptor (Homo sapiens, UniProt P00533, L858R); experiment: Inhibition of human recombinant GST-tagged EGFR L858R mutant expressed in baculovirus expression system using tyrosine 4 peptide as substrate after 60 mins in presence of ATP FRET based Z'-LYTE assay
Epidermal growth factor receptor (Homo sapiens, UniProt P00533, L858R), sequence (P00533 25-1210 L858R limits assumed): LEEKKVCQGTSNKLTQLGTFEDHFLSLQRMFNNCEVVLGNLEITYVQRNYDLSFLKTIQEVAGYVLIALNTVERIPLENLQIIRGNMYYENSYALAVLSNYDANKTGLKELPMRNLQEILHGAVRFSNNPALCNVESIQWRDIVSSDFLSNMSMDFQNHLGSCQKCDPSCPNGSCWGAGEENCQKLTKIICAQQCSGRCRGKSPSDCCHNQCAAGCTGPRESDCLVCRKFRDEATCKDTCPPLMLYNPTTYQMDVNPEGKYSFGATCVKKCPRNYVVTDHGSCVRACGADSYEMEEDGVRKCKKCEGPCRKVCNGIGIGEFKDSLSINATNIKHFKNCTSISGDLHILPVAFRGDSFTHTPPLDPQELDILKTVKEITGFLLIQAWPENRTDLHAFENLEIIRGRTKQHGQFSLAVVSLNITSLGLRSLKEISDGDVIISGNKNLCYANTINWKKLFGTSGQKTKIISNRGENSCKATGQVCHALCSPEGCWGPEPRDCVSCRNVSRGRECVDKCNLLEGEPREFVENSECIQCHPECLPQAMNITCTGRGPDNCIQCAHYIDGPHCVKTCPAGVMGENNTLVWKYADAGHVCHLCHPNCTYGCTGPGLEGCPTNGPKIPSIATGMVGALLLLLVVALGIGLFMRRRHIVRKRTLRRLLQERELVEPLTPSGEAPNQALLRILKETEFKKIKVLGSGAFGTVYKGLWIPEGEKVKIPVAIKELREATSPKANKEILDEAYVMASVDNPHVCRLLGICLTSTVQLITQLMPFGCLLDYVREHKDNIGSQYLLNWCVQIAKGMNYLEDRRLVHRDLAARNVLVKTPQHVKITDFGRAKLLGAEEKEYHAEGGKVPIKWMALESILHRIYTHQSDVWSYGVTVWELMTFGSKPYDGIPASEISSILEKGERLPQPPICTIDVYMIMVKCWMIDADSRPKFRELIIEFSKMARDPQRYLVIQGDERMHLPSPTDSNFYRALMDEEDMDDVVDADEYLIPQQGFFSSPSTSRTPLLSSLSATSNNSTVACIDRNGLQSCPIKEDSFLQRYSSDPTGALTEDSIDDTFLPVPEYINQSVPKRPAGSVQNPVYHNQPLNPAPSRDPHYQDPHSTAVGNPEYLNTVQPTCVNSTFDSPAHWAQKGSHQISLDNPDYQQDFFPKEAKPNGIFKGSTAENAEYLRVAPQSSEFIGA

[15] = Toxicity in nude mouse xenografted with human NCI-H1975 cells harboring EGFR T790M/L858R mutant assessed as mortality at 15 mg/kg, po administered once daily for 7 days relative to control; assay type: organism-based; details: in vivo, time 7 day, read-out: Activity
NCI-H1975 [16] = experiment: Antimigratory activity against human NCI-H1975 cells harboring EGFR T790M/L858R mutant assessed as inhibition of cell migration at 3 nM measured after 24 hrs by phase contrast microscopic analysis relative to control; assay type: functional
NCI-H1975 [17] = experiment: Induction of apoptosis in human NCI-H1975 cells harboring EGFR T790M/L858R mutant assessed as viable cells at 1 nM measured after 48 hrs by Annexin-V-FITC/propidium iodide staining based flow cytometry (reference value: 98.63%); assay type: functional; details: read-out: Activity
[18] = Cytotoxicity against HEK293-A cells assessed as reduction in cell viability by MTT assay; assay type: cell-based; details: Homo sapiens
[19] = target: Epidermal growth factor receptor (Homo sapiens, UniProt P00533); experiment: Inhibition of recombinant human GST-tagged EGFR expressed in baculovirus expression system using tyr-04 peptide as substrate incubated for 60 mins in presence of ATP by Z'-LYTE assay
Epidermal growth factor receptor (Homo sapiens, UniProt P00533), sequence (P00533 whole entry): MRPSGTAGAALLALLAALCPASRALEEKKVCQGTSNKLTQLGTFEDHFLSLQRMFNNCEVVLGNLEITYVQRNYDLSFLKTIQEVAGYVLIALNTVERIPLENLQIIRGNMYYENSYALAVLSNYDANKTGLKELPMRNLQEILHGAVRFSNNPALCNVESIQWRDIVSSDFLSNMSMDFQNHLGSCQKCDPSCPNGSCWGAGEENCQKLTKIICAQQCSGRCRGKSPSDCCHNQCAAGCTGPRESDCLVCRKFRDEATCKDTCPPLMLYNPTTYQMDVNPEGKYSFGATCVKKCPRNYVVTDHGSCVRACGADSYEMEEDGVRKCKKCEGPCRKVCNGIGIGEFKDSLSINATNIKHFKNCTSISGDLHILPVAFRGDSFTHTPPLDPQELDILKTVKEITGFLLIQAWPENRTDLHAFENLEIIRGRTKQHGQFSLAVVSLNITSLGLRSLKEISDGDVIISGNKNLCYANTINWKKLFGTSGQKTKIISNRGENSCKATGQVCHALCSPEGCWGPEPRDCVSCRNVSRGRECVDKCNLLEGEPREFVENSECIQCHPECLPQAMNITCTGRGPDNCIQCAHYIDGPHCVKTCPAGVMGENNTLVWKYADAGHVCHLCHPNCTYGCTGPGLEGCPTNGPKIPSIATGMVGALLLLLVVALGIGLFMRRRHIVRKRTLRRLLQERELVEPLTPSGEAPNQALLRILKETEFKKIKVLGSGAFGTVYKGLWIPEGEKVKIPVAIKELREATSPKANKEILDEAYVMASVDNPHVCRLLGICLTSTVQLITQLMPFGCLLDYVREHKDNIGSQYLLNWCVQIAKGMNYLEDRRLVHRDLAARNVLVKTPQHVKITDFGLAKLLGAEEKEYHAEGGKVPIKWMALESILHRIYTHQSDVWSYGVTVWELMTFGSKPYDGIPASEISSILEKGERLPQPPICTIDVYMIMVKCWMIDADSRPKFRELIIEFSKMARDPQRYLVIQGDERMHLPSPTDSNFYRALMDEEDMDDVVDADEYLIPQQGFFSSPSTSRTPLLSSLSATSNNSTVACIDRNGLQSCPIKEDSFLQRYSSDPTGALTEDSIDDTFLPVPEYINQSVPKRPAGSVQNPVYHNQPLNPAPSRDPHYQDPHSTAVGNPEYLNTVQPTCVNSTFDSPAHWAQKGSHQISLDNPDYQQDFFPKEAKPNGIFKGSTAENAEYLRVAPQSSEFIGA

[20] = Cytotoxicity against HLF cells assessed as reduction in cell viability by MTT assay; assay type: cell-based; details: Homo sapiens
NCI-H1975 [21] = experiment: Induction of mitochondrial membrane potential loss in human NCI-H1975 cells harboring EGFR T790M/L858R mutant assessed as cell population with mitochondrial membrane potential collapse at 10 nM measured after 24 hrs by JC1 staining based fluorescence microscopic analysis (reference value: 5.49%); assay type: functional
NCI-H1975 [22] = experiment: Induction of apoptosis in human NCI-H1975 cells harboring EGFR T790M/L858R mutant assessed as necrotic cells at 5 nM measured after 48 hrs by Annexin-V-FITC/propidium iodide staining based flow cytometry (reference value: […]); assay type: functional
NCI-H1975 [23] = experiment: Induction of mitochondrial membrane potential loss in human NCI-H1975 cells harboring EGFR T790M/L858R mutant measured after 24 hrs by JC1 staining based fluorescence microscopic analysis; assay type: functional, cell-based; details: dose 1-10 nM
NCI-H1975 [24] = experiment: Induction of mitochondrial membrane potential loss in human NCI-H1975 cells harboring EGFR T790M/L858R mutant assessed as cells with intact mitochondrial membrane potential at 5 nM measured after 24 hrs by JC1 staining based fluorescence microscopic analysis (reference value: 94.51%); assay type: functional
NCI-H1975 [25] = experiment: Induction of mitochondrial membrane potential loss in human NCI-H1975 cells harboring EGFR T790M/L858R mutant assessed as cell population with mitochondrial membrane potential collapse at 1 nM measured after 24 hrs by JC1 staining based fluorescence microscopic analysis (reference value: 5.49%); assay type: functional
PC-9 = experiment: Antiproliferative activity against human PC-9 cells harboring EGFR L858R mutant by MTT assay; assay type: functional, cell-based
[26] = target: Epidermal growth factor receptor (Homo sapiens, UniProt P00533, L858R/T790M); experiment: Inhibition of recombinant human GST-tagged EGFR T790M/L858R double mutant (668 to 1210 residues) expressed in baculovirus expression system using Tyr 4 as substrate incubated for 60 mins by Z'-Lyte assay
Epidermal growth factor receptor (Homo sapiens, UniProt P00533, L858R/T790M), sequence (P00533 25-1210 T790M/L858R limits assumed): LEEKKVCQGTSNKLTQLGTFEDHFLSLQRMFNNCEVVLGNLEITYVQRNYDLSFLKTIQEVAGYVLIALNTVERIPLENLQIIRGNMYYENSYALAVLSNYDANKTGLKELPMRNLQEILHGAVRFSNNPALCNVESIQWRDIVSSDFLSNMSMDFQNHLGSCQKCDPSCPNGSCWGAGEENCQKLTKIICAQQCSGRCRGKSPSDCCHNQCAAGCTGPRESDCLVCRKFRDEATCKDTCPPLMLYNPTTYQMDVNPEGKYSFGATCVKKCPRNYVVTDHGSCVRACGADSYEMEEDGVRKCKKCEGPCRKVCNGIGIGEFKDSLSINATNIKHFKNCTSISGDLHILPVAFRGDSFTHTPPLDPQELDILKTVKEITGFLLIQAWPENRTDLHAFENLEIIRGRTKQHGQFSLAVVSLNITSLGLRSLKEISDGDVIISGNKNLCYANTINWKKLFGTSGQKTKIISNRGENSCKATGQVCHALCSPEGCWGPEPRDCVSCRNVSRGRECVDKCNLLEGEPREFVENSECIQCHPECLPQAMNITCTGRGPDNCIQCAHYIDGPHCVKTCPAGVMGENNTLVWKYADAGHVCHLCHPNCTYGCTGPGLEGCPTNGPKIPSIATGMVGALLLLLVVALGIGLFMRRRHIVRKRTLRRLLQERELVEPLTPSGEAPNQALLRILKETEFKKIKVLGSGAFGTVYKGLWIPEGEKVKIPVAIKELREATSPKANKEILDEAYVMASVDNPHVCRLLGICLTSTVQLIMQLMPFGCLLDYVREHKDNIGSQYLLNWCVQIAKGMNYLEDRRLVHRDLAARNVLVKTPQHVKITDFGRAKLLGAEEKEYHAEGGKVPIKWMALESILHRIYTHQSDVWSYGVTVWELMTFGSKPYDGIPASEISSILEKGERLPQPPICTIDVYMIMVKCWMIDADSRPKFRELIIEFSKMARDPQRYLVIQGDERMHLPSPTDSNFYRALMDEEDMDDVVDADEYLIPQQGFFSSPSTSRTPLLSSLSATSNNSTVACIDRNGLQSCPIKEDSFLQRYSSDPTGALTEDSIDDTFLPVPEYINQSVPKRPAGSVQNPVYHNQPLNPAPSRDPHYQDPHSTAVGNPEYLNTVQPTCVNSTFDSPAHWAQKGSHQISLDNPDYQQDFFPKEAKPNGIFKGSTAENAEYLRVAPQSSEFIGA

NCI-H1975 [27] = experiment: Induction of apoptosis in human NCI-H1975 cells harboring EGFR T790M/L858R mutant assessed as necrotic cells at 10 nM measured after 72 hrs by Annexin-V-FITC/propidium iodide staining based flow cytometry (reference value: 0.49%); assay type: functional
NCI-H1975 [28] = experiment: Induction of apoptosis in human NCI-H1975 cells harboring EGFR T790M/L858R mutant assessed as early apoptotic cells at 1 nM measured after 72 hrs by Annexin-V-FITC/propidium iodide staining based flow cytometry (reference value: 0.72%); assay type: functional

## C=CC(=O)Nc1cc(Nc2nccc(-c3cn(C4CC4)c4ccccc34)n2)c(OC)cc1[S+]([O-])CCN(C)C (stereo unspecified)
[1]
  Ratio IC50: 755
[2]
  bioavailability: 40.4%
NCI-H1975 [3]
  Activity: 80.71%
NCI-H1975 [4]
  Activity: 21.73%
NCI-H292
  IC50: 718 nM
[5]
  Activity: < 5%
L02
  IC50: 4670 nM
NCI-H1975 [6]
  inhibition at 0.003 µM: 53%
[7]
  half-life: 2.51 h
NCI-H1975 [8]
  Activity: 2.93%
NCI-H1975 [9]
  Activity: 44.72%
NCI-H1975 [10]
  viability at 0.001 µM: 70.3%
NCI-H1975 [11]
  Activity: 19.59%
[12]
  Tmax: 1.67 h
NCI-H1975 [13]
  Activity: 22.53%
[14]
  IC50: 1.1 nM
[15]
  mortality at 168 h: < 5%
NCI-H1975 [16]
  inhibition at 0.003 µM: 39%
NCI-H1975 [17]
  viability at 0.001 µM: 82%
[18]
  IC50: 3060 nM
[19]
  IC50: 4.1 nM
[20]
  IC50: 6040 nM
NCI-H1975 [21]
  Activity: 40.31%
NCI-H1975 [22]
  Activity: 7.42%
NCI-H1975 [23]
  Activity: Dose-dependent effect
NCI-H1975 [24]
  Activity: 72.38%
NCI-H1975 [25]
  Activity: 19.29%
PC-9
  IC50: 4 nM
[26]
  IC50: 0.26 nM
NCI-H1975 [27]
  Activity: 5.38%
NCI-H1975 [28]
  Activity: 17.25%
